One assay has as its system arthritis. Kind of assay: Case report: patient with arthritis treated for pneumonia (EXAMPLE B). It counts as in vivo, human. The conditions noted are these: person (Subject No 1912); 625 mg twice daily intravenously for 3 days, then 8 days oral at the same dose; taking no medications at follow up.
In a further assay the test system is psoriasis. The assay is described as follows: Case report: treatment of a patient with chronic psoriasis (EXAMPLE A). It is filed as in vivo, human. The conditions noted are these: person. The procedure: They had chronic psoriatic lesions of both elbows, groin, left leg, right leg, and lower back. The lesions were treated in the past with coal tar and topical steroids but not UV light. They were allergic to the excipients in the steroidal topical preparations.
After six months it had returned to the pretreatment state.

[1] abbreviates: after 625 mg twice daily for fourteen days.

For `CC(=O)NC[C@H]1CN(c2ccc(N3CCOCC3)c(F)c2)C(=O)O1` [EXAMPLE 2, (S)-N-[[3-[3-Fluoro-4-(4-morpholinyl)phenyl]-2-oxo-5-oxazolidinyl]methyl]acetamide], the “arthritis status stated by the patient at long term follow up” value with arthritis is “arthritis was gone”. The “improvement in their psoriasis” value with psoriasis (625 mg twice daily for fourteen days (IV five days, then orally nine days), onset as soon as they started taking the medication) was “immediate improvement”. In addition, the “clearing of the psoriasis” value in the assay on psoriasis (625 mg twice daily for fourteen days, no other psoriasis treatment, from the time they took the medication) is reported as “complete clearing”. In the assay with psoriasis (setting [1]), the “time until psoriasis gradually began to return” value is given as “three” and the “time until psoriasis had returned to the pretreatment state” value is listed as “six”.

For the origin of these results see patent EP1304107A2, “Use of oxazolidinines derivatives for treating psoriasis” (PHARMACIA & UPJOHN COMPANY, priority 1997, dated 1999).
